Test [1] addresses T1, 5-hydroxytryptamine receptor 3A (Homo sapiens, UniProt P46098).
T1 sequence (P46098 whole entry): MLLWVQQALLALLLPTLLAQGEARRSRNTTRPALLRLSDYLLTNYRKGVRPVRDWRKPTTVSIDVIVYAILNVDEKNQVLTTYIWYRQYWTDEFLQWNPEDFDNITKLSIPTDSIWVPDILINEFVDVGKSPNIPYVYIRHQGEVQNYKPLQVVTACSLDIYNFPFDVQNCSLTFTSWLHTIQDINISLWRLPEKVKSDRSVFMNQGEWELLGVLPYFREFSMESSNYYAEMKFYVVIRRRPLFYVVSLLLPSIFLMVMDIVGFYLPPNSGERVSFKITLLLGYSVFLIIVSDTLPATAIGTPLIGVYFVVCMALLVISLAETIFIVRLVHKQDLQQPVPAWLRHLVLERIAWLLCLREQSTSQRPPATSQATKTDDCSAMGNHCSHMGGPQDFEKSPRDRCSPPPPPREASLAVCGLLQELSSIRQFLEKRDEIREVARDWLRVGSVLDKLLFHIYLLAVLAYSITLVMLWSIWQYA
It is filed as functional.

For another test, the target named is Histamine H2 receptor (Homo sapiens, UniProt P25021). The format is functional, cell-based.
Histamine H2 receptor, sequence (P25021 whole entry): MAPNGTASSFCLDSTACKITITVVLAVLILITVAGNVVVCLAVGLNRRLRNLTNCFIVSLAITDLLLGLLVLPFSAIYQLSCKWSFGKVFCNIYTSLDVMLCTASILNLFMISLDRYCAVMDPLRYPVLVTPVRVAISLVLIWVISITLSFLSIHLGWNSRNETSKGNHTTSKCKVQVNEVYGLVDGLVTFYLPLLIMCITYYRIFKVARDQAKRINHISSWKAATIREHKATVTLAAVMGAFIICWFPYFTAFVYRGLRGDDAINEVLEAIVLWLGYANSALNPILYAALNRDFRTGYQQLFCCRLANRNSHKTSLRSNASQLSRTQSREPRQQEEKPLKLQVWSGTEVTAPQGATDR
A further test addresses T2, Adenosine receptor A1 (Homo sapiens, UniProt P30542).
T2 sequence (P30542 whole entry): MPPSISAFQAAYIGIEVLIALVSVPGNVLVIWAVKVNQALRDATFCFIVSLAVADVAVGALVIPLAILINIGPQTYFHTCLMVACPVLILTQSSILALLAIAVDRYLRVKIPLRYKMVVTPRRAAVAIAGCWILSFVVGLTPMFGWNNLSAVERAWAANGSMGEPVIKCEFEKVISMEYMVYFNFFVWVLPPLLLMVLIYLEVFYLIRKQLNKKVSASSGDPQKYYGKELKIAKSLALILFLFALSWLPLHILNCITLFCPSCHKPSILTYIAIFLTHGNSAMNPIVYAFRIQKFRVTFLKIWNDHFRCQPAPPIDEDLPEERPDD

In the next test the target is Melanocortin receptor 4 (Homo sapiens, UniProt P32245).
Melanocortin receptor 4, sequence (P32245 whole entry): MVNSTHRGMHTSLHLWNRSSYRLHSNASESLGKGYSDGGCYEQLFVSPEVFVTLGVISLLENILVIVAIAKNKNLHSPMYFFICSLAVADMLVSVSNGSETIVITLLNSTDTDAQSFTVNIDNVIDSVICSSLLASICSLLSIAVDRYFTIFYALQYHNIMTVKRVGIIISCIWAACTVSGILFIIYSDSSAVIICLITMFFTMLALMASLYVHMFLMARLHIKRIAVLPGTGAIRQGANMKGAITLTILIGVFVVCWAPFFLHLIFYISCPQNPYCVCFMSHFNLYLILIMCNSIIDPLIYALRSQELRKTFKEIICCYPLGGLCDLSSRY
Another test deals with Melanocortin receptor 3 (Homo sapiens, UniProt P41968).
Melanocortin receptor 3, sequence (P41968 whole entry): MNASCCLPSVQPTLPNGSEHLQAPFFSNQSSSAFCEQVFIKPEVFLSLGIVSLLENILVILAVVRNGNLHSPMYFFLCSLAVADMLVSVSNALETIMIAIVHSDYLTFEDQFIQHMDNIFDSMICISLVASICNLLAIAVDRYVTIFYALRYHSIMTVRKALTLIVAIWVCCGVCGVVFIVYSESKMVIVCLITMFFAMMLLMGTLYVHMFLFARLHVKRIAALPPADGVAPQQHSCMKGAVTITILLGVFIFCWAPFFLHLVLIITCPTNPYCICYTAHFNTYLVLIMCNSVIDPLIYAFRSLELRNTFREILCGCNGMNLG
Test [2] concerns the target T3, Alpha-2B adrenergic receptor (Homo sapiens, UniProt P18089).
T3 sequence (P18089 whole entry): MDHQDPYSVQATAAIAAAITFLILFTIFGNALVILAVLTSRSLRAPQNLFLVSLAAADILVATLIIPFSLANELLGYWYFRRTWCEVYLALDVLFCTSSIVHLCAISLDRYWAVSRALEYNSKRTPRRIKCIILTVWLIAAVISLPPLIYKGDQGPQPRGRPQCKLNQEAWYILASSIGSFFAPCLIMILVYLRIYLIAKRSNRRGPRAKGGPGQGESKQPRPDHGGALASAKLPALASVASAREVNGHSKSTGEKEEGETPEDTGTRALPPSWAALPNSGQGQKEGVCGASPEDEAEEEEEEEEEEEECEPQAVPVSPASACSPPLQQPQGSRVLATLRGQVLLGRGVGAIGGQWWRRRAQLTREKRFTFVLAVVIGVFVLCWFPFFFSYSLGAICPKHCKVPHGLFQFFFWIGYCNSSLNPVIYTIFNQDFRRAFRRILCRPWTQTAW

Test [3] concerns the target T4, 5-hydroxytryptamine receptor 2C (Homo sapiens, UniProt P28335).
T4 sequence (P28335 whole entry): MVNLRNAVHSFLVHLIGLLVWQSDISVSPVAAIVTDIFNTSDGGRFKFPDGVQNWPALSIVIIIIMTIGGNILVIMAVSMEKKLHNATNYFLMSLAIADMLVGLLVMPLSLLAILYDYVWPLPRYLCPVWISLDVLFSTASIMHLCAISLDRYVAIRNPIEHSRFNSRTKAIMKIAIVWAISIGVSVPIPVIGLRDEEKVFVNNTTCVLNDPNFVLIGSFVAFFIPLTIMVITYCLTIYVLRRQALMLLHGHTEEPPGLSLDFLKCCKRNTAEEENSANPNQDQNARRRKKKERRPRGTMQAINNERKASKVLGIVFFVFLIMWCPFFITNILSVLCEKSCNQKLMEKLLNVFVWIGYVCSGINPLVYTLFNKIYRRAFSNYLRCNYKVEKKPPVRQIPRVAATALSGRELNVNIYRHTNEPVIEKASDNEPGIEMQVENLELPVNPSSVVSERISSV

The target in test [4] is 3',5'-cyclic-AMP phosphodiesterase 4D (Homo sapiens, UniProt Q08499). The format is functional.
3',5'-cyclic-AMP phosphodiesterase 4D, sequence (Q08499 whole entry): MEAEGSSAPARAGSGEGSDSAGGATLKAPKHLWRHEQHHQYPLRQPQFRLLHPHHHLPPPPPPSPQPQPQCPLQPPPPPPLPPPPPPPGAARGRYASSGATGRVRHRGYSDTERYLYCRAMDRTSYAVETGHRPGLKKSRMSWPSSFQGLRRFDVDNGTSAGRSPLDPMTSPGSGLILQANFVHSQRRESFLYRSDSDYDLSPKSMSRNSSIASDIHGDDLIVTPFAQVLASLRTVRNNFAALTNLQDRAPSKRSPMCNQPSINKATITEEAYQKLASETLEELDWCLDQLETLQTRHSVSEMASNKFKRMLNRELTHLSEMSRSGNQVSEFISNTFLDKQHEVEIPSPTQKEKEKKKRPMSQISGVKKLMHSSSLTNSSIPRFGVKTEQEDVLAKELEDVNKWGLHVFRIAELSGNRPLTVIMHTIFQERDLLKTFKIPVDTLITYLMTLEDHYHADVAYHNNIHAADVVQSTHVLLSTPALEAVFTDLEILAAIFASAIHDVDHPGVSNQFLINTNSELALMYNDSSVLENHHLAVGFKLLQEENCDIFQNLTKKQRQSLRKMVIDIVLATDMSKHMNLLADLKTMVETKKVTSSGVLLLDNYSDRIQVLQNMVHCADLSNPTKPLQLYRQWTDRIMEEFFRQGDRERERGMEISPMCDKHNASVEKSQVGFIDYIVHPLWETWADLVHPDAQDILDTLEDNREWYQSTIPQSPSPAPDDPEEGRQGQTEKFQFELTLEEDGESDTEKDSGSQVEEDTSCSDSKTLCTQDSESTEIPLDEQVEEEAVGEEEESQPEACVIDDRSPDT
The target in test [5] is Gamma-aminobutyric acid receptor subunit alpha-1 (Rattus norvegicus, UniProt P62813). It is filed as functional.
Gamma-aminobutyric acid receptor subunit alpha-1, sequence (P62813 whole entry): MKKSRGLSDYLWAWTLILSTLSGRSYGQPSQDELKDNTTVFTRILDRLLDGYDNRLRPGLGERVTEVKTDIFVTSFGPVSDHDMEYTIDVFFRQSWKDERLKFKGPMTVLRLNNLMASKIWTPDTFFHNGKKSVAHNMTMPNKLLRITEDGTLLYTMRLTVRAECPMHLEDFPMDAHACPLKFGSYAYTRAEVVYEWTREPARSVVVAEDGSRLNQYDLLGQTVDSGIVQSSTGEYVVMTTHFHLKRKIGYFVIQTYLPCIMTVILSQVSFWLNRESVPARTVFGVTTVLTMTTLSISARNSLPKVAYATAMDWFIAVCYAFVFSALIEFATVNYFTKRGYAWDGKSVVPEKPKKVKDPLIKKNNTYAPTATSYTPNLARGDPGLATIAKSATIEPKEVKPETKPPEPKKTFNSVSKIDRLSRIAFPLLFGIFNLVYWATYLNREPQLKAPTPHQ
In test [6] the target is cGMP-inhibited 3',5'-cyclic phosphodiesterase 3A (Homo sapiens, UniProt Q14432). The format is functional.
cGMP-inhibited 3',5'-cyclic phosphodiesterase 3A, sequence (Q14432 whole entry): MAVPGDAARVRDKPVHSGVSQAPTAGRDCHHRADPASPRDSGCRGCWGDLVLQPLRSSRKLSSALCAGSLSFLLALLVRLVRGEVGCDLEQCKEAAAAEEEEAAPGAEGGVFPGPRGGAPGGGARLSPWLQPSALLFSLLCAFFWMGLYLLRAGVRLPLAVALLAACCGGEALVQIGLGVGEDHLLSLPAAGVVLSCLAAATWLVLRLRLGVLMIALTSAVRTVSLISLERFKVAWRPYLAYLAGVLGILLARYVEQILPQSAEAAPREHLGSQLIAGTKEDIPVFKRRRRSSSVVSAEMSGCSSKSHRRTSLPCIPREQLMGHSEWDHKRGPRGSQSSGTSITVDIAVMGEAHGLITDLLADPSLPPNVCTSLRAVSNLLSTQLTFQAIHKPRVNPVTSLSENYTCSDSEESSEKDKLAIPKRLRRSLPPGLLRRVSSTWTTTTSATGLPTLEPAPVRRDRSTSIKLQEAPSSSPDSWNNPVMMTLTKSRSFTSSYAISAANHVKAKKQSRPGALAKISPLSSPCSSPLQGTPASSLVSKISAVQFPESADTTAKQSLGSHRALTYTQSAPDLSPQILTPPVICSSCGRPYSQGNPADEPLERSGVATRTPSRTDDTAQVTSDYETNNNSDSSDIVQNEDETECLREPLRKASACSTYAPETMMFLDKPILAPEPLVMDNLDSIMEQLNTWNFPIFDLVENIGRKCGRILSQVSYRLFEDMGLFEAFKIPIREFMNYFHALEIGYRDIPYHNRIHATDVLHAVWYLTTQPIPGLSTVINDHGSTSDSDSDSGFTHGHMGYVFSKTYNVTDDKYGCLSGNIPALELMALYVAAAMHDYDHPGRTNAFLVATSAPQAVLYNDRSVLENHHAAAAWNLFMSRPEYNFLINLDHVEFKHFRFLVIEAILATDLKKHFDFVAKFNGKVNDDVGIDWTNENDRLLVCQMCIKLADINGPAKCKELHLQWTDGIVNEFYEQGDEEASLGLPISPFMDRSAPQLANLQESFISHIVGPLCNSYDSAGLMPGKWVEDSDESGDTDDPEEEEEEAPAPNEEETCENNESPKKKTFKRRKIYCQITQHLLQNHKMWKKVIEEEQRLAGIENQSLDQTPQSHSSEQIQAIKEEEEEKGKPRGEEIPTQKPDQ
For test [7], the target named is T5, Alpha-1A adrenergic receptor (Homo sapiens, UniProt P35348).
T5 sequence (P35348 whole entry): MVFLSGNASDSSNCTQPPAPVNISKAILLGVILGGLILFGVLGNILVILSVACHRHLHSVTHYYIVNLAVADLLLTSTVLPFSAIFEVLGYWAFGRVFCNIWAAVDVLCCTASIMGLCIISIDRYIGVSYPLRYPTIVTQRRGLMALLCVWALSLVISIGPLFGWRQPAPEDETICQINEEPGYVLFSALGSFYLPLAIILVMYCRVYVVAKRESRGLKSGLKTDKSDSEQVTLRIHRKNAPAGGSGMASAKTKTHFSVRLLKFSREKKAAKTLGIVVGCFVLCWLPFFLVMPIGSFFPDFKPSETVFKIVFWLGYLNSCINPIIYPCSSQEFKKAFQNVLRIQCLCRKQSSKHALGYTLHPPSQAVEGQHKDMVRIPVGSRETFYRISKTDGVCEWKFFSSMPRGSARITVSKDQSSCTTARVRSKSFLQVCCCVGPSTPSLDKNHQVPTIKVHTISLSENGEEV

For test [8], the target named is T6, Cannabinoid receptor 1 (Homo sapiens, UniProt P21554). The format is functional, cell-based.
T6 sequence (P21554 whole entry): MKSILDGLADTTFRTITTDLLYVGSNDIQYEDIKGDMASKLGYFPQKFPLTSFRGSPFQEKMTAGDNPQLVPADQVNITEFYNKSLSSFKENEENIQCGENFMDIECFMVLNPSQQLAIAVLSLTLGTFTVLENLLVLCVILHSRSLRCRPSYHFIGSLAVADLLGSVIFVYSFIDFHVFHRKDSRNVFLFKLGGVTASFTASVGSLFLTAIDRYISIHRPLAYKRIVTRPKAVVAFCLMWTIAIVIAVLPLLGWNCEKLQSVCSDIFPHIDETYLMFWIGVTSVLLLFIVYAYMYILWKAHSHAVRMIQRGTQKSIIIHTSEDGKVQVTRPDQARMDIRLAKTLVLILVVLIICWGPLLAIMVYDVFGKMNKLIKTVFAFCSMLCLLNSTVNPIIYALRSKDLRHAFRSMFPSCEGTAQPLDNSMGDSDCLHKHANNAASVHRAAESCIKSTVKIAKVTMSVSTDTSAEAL
Test [9] deals with T6, Cannabinoid receptor 1. The format is functional, cell-based. This is another data set of the same source.

The AC50 is the concentration giving half of the maximal activity seen. The low end stands for greater potency, the high end for weaker potency.
Further: assay procedure not described here.

With `C[N+]1(C)CCC(=C(c2ccccc2)c2ccccc2)CC1`, the AC50 in [1] was 6.1 µM; at Histamine H2 receptor, above 10 µM; at Adenosine receptor A1, above 30 µM; on Melanocortin receptor 4, above 30 µM; on Melanocortin receptor 3, above 30 µM; in test [2] it was above 10 µM. Moreover, the AC50 in test [3] was above 30 µM; in [4], above 30 µM; in [5] it was above 10 µM; in test [6], above 30 µM; in test [7], above 10 µM.
For the compound `CN(C)Cc1nnc2n1-c1ccc(Cl)cc1C(c1ccccc1)=NC2` [ADINAZOLAM], the AC50 was above 30 µM in test [1]; above 10 µM on Histamine H2 receptor; above 10 µM at Adenosine receptor A1; above 10 µM on Melanocortin receptor 4; above 10 µM at Melanocortin receptor 3; above 10 µM in test [2]. Also, the AC50 in test [3] was above 30 µM; in test [4], above 30 µM; in test [5] it was 0.19 µM; in [6] it was above 30 µM; in [7], above 10 µM.
As for `Cc1ccccc1-n1c(CF)nc2ccc(N)cc2c1=O` [AFLOQUALONE], the AC50 in [1] is above 30 µM; on Histamine H2 receptor, above 30 µM; on Adenosine receptor A1 it was above 30 µM; at Melanocortin receptor 4, above 30 µM; on Melanocortin receptor 3, above 30 µM; in [2] it was above 10 µM. Also, the AC50 in test [3] is above 30 µM; in test [4], 13 µM; in test [5], above 10 µM; in test [6], above 30 µM; in test [7], above 30 µM.
For `O=C(/C=C/c1cccc(S(=O)(=O)Nc2ccccc2)c1)NO` [BELINOSTAT], the AC50 in test [1] was above 30 µM; at Adenosine receptor A1 it was above 30 µM; at Melanocortin receptor 4, above 30 µM; at Melanocortin receptor 3, above 30 µM; in test [2], above 10 µM; in test [3], above 30 µM. In addition, the concentration at half-maximal activity (AC50) in test [4] was 7.1 µM; in [5] it was above 10 µM; in test [6] it was above 30 µM; in test [7], above 10 µM.
As to `C/C=C(/C(=C/C)c1ccc(O)cc1)c1ccc(O)cc1` [DIENESTROL], the AC50 in test [1] is above 30 µM; on Histamine H2 receptor it was above 10 µM; on Adenosine receptor A1 it was above 30 µM; at Melanocortin receptor 4 it was above 10 µM; on Melanocortin receptor 3, above 10 µM; in [2] it was above 10 µM. Also, the AC50 in test [3] is above 30 µM; in test [4] it was above 30 µM; in test [5], above 10 µM; in test [6] it was above 30 µM; in [7], above 10 µM.
In the case of `COc1ccc([C@@H]2CC(=O)c3c(O)cc(O)cc3O2)cc1O` [HESPERETIN], the AC50 in test [1] is above 30 µM; at Histamine H2 receptor, above 30 µM; on Adenosine receptor A1, above 10 µM; at Melanocortin receptor 4, above 10 µM; on Melanocortin receptor 3, above 10 µM; in test [2] it was above 10 µM. In addition, the AC50 was above 30 µM in test [3]; 30 µM in test [4]; above 10 µM in [5]; 21 µM in [6]; above 30 µM in [7].
As for `CCC[C@@H]1C[C@@H](C(=O)N[C@@H]([C@H]2O[C@H](SC)[C@H](O)[C@@H](O)[C@H]2O)[C@@H](C)O)N(C)C1` [LINCOMYCIN], the concentration at half-maximal activity (AC50) was above 30 µM in test [1]; above 10 µM on Histamine H2 receptor; above 10 µM at Adenosine receptor A1; above 10 µM at Melanocortin receptor 4; above 30 µM on Cannabinoid receptor 1 [8]; above 10 µM at Melanocortin receptor 3. Also, the AC50 was above 30 µM in test [3]; above 30 µM at Cannabinoid receptor 1 [9]; above 30 µM in [4]; above 10 µM in test [5]; above 30 µM in [6]; above 10 µM in test [7].
Regarding `C=C1c2cccc(O)c2C(=O)C2=C(O)[C@]3(O)C(=O)C(C(N)=O)=C(O)[C@@H](N(C)C)[C@@H]3[C@@H](O)[C@H]12` [METHACYCLINE], the AC50 in [1] is above 30 µM; at Histamine H2 receptor, above 10 µM; at Adenosine receptor A1 it was above 30 µM; at Melanocortin receptor 4, 41.5 µM; on Melanocortin receptor 3, above 30 µM; in test [2], above 10 µM. In addition, the AC50 in test [3] was above 30 µM; in [4] it was above 30 µM; in [5], above 10 µM; in test [6], above 30 µM; in test [7], above 10 µM.
Consider `CN(Cc1cnc2nc(N)nc(N)c2n1)c1ccc(C(=O)N[C@@H](CCC(=O)O)C(=O)O)cc1` [METHOTREXATE], for which the AC50 in [1] is above 30 µM; on Histamine H2 receptor it was above 10 µM; at Adenosine receptor A1 it was above 30 µM; on Melanocortin receptor 4 it was above 30 µM; at Cannabinoid receptor 1 [8], above 30 µM; on Melanocortin receptor 3, above 30 µM. The AC50 in [3] was above 30 µM; on Cannabinoid receptor 1 [9] it was above 30 µM; in test [4], above 30 µM; in [5], above 10 µM; in test [6], above 30 µM; in [7], above 10 µM.
Consider `O=C1c2ccccc2C(=O)C1c1ccccc1` [PHENINDIONE], for which the AC50 in [1] is above 30 µM; on Histamine H2 receptor, above 10 µM; at Adenosine receptor A1, above 10 µM; at Melanocortin receptor 4 it was above 10 µM; at Cannabinoid receptor 1 [8], above 30 µM; at Melanocortin receptor 3 it was above 10 µM. For the same compound, the AC50 in [3] was above 30 µM; at Cannabinoid receptor 1 [9] it was above 30 µM; in test [4], above 30 µM; in test [5] it was above 10 µM; in test [6], above 30 µM; in test [7], above 10 µM.
In the case of `CN[C@@H](C)[C@@H](O)c1ccccc1` [PSEUDOEPHEDRINE], the AC50 in [1] was above 30 µM; on Histamine H2 receptor, above 10 µM; on Adenosine receptor A1, above 30 µM; on Melanocortin receptor 4, above 30 µM; on Melanocortin receptor 3, above 30 µM; in [2] it was above 10 µM. Besides, the AC50 in [3] was above 30 µM; in [4] it was above 30 µM; in test [5], above 10 µM; in test [6] it was above 30 µM; in [7], above 10 µM.
